Assay results: ChEMBL document CHEMBL1201862, “PubChem BioAssay data set” (2004)
Activity calls are given as the source filed them.

How the values were obtained:
[1] = target: ATP-dependent molecular chaperone HSP82 (Candida albicans (strain WO-1) (Yeast), UniProt C4YTQ8); assay: loss of DOC-induced GRE-beta-galactosidase reporter signal, dose response, Hsp90 inhibitor project, S. cerevisiae, luminescence (AID 2400); assay type: functional, cell-based;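 note: beta-galactosidase luminescence from glucocorticoid response element reporter as proxy for Hsp90 function; inhibitor potency where signal loss means Hsp90 inhibition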
[2] = cells; assay type: functional, cell-based
[3] = test system: BJ; assay: cytotoxicity toward BJ-TERT-LT-ST fibroblasts, dose response, cell-based, RAS-independent, luminescence (AID 1935); assay type: functional; conditions: Homo sapiens;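 note: BJ fibroblasts immortalized with TERT plus LT and ST oncogenes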
[4] = Shn3 3'UTR reporter inhibitors, dose response, cell-based, Clone20 osteoblasts, firefly luciferase, cherry-picked (AID 624132); assay type: functional;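 note: firefly luciferase luminescence from reporter carrying the Shn3 3'UTR in osteoblasts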
[5] = target: Nonstructural protein 1 (Influenza A virus, UniProt Q194T2); assay type: functional, Influenza A virus (A/California/07/2009(H1N1))
[6] = test system: INS1; assay: beta cell apoptosis inhibitors, cytokine rescue, dose response, luminescence, retest (AID 449756); assay type: functional, cell-based; conditions: Rattus norvegicus;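 note: cell death triggered by IL-1 beta plus TNF-alpha plus IFN-gamma mixture; protective hits raise ATP signal compared with cytokine alone wells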
[7] = target: T1, Serine/threonine-protein phosphatase (Candida dubliniensis (strain CD36 / CBS 7987 / NCPF 3949 / NRRLY-17841) (Yeast), UniProt B9W6M3); assay: calcineurin pathway inhibitors in yeast reporter, dose response, S. cerevisiae, CDRE-lacZ, luminescence, secondary (AID 2388); assay type: functional, cell-based;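 note: yeast reporter cells carrying a calcineurin-responsive lacZ construct stimulated with calcium chloride; luminescent beta-galactosidase reporter signal in whole cells rather than isolated phosphatase activity; potency for inhibition where a drop in reporter signal means calcineurin blockade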
T1 sequence (B9W6M3 whole entry): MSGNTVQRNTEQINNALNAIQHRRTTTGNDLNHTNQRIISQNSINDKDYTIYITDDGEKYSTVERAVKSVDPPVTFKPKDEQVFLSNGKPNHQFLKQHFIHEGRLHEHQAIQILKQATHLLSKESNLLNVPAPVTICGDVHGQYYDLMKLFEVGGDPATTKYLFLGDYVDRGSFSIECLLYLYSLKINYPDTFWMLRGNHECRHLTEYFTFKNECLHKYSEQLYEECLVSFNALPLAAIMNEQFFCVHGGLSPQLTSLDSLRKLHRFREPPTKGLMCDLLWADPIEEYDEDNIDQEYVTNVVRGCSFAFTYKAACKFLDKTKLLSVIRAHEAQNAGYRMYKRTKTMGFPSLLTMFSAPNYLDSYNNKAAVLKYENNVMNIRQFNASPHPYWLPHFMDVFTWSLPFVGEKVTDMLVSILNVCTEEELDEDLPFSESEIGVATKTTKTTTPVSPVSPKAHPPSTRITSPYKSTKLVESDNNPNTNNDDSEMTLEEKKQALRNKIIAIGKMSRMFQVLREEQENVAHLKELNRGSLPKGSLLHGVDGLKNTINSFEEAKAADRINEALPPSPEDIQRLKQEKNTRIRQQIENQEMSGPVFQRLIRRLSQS

[8] = cytotoxicity toward DRD oncogenic fibroblasts, dose response, cell-based, non-viral oncogenic, luminescence (AID 1934); assay type: functional; conditions: Homo sapiens
[9] = target: T2, Sentrin-specific protease 8 (Homo sapiens, UniProt Q96LD8); assay type: functional;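 note: luminescence read-out of SENP8 inhibition, dose-response confirmation following an ultra-high-throughput screen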
T2 sequence (Q96LD8 whole entry): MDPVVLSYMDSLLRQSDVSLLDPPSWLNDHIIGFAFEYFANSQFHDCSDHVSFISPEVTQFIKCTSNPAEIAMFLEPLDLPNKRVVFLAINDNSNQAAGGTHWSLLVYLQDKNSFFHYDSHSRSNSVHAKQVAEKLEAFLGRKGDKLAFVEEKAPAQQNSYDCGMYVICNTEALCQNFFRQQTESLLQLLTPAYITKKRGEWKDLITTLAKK

[10] = target: T3, Caspase-6 (Homo sapiens, UniProt P55212); assay: human caspase-6 inhibitors, dose response, biochemical, VEID-R110 fluorescence, cherry-pick (AID 720632)
T3 sequence (P55212 whole entry): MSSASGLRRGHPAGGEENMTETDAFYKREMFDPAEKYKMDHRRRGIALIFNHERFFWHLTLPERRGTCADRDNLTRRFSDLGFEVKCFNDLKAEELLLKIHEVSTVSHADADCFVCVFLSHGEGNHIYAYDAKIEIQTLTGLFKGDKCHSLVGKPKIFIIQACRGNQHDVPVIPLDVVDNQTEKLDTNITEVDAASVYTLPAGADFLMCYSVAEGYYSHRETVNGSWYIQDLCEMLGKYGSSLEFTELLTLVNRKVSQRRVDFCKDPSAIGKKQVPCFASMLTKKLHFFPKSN

[11] = target: T4, Histone-lysine N-methyltransferase NSD2 (Homo sapiens, UniProt O96028); assay type: biochemical
T4 sequence (O96028 whole entry): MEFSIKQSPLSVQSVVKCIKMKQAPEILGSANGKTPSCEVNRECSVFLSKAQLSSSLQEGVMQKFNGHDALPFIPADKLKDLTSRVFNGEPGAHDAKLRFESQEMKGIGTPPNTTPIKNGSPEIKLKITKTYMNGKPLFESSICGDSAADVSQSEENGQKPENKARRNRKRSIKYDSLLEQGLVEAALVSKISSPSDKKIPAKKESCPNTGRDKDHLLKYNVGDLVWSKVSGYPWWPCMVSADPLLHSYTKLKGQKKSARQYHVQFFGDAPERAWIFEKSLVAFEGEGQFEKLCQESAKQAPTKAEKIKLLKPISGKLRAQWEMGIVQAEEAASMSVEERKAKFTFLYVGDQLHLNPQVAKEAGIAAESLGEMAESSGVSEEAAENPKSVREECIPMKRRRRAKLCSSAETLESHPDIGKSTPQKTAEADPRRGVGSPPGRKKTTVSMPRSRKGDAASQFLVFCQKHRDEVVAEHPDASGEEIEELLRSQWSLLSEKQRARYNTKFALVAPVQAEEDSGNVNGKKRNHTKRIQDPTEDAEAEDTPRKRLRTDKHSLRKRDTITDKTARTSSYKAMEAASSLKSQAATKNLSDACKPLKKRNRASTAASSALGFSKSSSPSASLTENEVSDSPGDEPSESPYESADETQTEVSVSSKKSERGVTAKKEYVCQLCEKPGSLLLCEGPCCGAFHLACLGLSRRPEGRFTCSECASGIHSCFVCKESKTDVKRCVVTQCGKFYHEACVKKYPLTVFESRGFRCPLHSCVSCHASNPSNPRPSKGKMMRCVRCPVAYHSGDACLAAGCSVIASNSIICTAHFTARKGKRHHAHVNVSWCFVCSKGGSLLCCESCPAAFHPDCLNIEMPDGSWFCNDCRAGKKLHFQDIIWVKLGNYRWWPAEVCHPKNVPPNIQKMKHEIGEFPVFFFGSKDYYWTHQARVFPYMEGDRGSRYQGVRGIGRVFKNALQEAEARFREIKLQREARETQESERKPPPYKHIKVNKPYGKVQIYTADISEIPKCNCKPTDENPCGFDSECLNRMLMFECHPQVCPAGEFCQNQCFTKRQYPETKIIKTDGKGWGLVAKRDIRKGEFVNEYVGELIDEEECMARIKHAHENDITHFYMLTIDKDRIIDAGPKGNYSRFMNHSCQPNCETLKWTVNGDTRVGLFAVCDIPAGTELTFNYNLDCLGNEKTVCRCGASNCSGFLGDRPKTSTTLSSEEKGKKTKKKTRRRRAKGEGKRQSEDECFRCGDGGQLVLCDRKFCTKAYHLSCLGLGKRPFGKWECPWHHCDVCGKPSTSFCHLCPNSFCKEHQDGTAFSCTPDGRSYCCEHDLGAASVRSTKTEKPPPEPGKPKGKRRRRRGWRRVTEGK

Sequence of Nonstructural protein 1 (Q194T2 whole entry): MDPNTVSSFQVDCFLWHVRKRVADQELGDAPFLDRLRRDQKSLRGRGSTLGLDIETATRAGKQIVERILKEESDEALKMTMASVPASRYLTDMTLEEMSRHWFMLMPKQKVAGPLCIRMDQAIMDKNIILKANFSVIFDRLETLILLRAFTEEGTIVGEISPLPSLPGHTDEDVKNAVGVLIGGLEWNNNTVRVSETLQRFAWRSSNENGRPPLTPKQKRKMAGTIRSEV
Sequence of ATP-dependent molecular chaperone HSP82 (C4YTQ8 whole entry): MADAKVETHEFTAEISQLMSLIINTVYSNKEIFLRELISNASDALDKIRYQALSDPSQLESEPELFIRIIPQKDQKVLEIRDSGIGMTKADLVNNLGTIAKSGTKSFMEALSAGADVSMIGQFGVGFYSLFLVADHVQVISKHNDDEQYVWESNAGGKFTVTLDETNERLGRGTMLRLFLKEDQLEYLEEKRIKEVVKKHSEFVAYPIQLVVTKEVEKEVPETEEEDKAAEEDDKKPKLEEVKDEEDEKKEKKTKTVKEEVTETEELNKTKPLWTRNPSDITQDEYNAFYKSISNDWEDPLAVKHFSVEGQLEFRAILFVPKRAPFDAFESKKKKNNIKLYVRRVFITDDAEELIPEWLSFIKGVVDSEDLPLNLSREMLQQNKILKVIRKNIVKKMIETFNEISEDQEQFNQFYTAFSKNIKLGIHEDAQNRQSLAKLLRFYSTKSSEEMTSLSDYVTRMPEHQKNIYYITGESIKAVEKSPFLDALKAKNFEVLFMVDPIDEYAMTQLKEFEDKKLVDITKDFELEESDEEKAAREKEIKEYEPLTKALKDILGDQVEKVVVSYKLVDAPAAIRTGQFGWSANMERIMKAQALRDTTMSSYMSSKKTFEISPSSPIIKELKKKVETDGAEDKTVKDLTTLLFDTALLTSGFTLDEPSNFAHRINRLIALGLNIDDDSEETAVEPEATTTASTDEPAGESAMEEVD

Row | Structure (SMILES) | EC50 [1] | EC50 [2] | EC50 [3] | AC50 [4] | IC50 [5] | AC50 [6] | EC50 [7] | EC50 [8] | IC50 [9] | AC50 [10] | AC50 [11]
1 | CCCCC(=O)NC(c1ccc(N(C)C)cc1)c1ccc2cccnc2c1O (stereo unspecified) | > 160 µM (inactive) | > 350 µM (not active) | 3.17 µM (inconclusive) | 0.98 µM (active) | 24.9 µM (active) | 0.626 µM (active) | > 180 µM (inactive) | 2.51 µM (active) | – | – | –
2 | CN(CC(=O)Nc1ccccc1Cl)C(=O)COC(=O)c1ccc([N+](=O)[O-])s1 | – | – | – | – | – | – | – | – | 3.95 µM (active) | 4.3 µM (active) | 8.27 µM (active)
